Measurements from US11524966B1 (Valo Early Discovery, Inc., priority 2017, dated 2022).

Molecular target: T1, USP28 (USP28-5(1-1077)-TEV-6*His; LifeSensors) (Homo sapiens, UniProt Q96RU2)
T1 construct: construct USP28 (USP28-5(1-1077)-TEV-6*His; LifeSensors); TEV cleavage site (C); 6xHis (C); purchased LifeSensors
T1 sequence (Q96RU2 1-1077): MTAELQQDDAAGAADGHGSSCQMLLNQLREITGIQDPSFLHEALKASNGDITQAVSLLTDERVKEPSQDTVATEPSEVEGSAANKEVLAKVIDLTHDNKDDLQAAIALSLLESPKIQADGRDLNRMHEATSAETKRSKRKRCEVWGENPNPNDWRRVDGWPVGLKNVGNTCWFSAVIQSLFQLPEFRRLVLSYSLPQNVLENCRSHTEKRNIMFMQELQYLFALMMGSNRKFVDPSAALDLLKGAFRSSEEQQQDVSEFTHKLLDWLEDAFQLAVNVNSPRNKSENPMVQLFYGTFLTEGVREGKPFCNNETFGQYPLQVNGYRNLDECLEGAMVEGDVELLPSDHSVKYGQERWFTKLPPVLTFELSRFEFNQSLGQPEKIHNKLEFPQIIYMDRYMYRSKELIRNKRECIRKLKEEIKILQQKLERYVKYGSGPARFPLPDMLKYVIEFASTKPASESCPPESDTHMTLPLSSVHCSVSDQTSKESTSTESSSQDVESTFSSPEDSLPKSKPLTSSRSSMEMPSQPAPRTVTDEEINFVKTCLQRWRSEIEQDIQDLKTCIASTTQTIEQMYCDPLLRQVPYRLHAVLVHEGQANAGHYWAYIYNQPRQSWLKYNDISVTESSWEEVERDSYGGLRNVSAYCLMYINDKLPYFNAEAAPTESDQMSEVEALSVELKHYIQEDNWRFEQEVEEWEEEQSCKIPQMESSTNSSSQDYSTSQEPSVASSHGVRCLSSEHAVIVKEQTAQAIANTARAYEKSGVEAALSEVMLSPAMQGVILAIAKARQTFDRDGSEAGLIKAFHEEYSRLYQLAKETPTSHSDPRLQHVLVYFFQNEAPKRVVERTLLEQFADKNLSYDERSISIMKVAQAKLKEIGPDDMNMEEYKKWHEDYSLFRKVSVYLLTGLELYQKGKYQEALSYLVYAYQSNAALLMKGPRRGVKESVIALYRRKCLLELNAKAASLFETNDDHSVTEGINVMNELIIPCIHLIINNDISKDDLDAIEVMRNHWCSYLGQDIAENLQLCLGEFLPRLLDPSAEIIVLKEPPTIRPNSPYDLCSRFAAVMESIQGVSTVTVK
Assay: Ubiquitin-Rhodamine 110 Assay for USP28 Activity, Example A-1(b)
Assay type: biochemical
Details: Ubiquitin-Rhodamine 110 assay, Example A-1(b)
Procedure, shortened: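 Single-point screening used 10 μM compound with 90 min room-temperature incubation; follow-up dose-responses (25 μM top, 3-fold) used 75 pM USP28 1-1077 construct, 30 min compound preincubation, 25 nM Ub-Rh110, 20 min reaction, citric acid quench. Rh110 fluorescence normalised to no-enzyme and DMSO controls; IC50 from 4-parameter logistic fit.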

SMILES	USP28 A-1(b) IC50 range
O=C(N[C@H]1COc2cc(N3CCNCC3)ccc2C1)c1cnn2ccccc12 [Example 460, (R)-N-(7-(piperazin-1-yl)chroman-3-yl)pyrazolo[1,5-a]pyridine-3-carboxamide]	+ (>2 μM)
Cc1cnc2c(N)c(C(=O)N[C@H]3CCc4cc(N5CC(C(=O)O)C5)ccc4C3)sc2n1 [Example 6-4, (S)-1-(6-(7-amino-3-methylthieno[2,3-b]pyrazine-6-carboxamido)-5,6,7,8-tetrahydronaphthalen-2-yl)azetidine-3-carboxylic acid]	+ (>2 μM)
CC(=O)Nc1cccc(CNc2ccc(C(=O)N[C@H]3COc4cc(N5CCNCC5)ccc4C3)cn2)c1 [Example 473, (R)-6-((3-acetamidobenzyl)amino)-N-(7-(piperazin-1-yl)chroman-3-yl)nicotinamide]	+ (>2 μM)
Cc1ccc2c(N)c(C(=O)N[C@H]3COc4cc(N5CCN[C@@H](C(F)(F)F)C5)ccc4C3)sc2n1 [Example 3-11, 3-amino-6-methyl-N-((R)-7-((R)-3-(trifluoromethyl)piperazin-1-yl)chroman-3-yl)thieno[2,3-b]pyridine-2-carboxamide]	++ (0.2-2 μM)
Cc1ccc2c(N)c(C(=O)N[C@H]3COc4cc(N5CC[C@@H](C(=O)O)C5)ccc4C3)sc2n1 [Example 6-2, (R)-1-((R)-3-(3-amino-6-methylthieno[2,3-b]pyridine-2-carboxamido)chroman-7-yl)pyrrolidine-3-carboxylic acid]	++ (0.2-2 μM)
Cc1ccc2c(N)c(C(=O)N[C@H]3COc4cc(N5CCN[C@H](C(F)(F)F)C5)ccc4C3)sc2n1 [Example 3-12, 3-amino-6-methyl-N-((R)-7-((S)-3-(trifluoromethyl)piperazin-1-yl)chroman-3-yl)thieno[2,3-b]pyridine-2-carboxamide]	++ (0.2-2 μM)
Cc1cnc2c(N)c(C(=O)N[C@H]3CCc4cc(N5CCCNCC5)ccc4C3)sc2n1 [Example 455, (S)-N-(6-(1,4-diazepan-1-yl)-1,2,3,4-tetrahydronaphthalen-2-yl)-7-amino-3-methylthieno[2,3-b]pyrazine-6-carboxamide]	++ (0.2-2 μM)
O=C(N[C@H]1COc2cc(N3CCNCC3)ccc2C1)c1ccc(NCc2ccc3c(c2)CCO3)nc1 [Example 472, (R)-6-(((2,3-dihydrobenzofuran-5-yl)methyl)amino)-N-(7-(piperazin-1-yl)chroman-3-yl)nicotinamide]	++ (0.2-2 μM)
Cc1cnc2c(N)c(C(=O)N[C@@H]3CCc4cc(N5CC6CNCC(C5)O6)ccc4C3)sc2n1 [Example 450, N-((2R)-6-(9-oxa-3,7-diazabicyclo[3.3.1]nonan-3-yl)-1,2,3,4-tetrahydronaphthalen-2-yl)-7-amino-3-methylthieno[2,3-b]pyrazine-6-carboxamide]	+ (>2 μM)
Cc1ccc2c(N)c(C(=O)N[C@H]3COc4cc(N5CCC(C(=O)O)CC5)ccc4C3)sc2n1 [Example 6-1, (R)-1-(3-(3-Amino-6-methylthieno[2,3-b]pyridine-2-carboxamido)chroman-7-yl)piperidine-4-carboxylic Acid]	++ (0.2-2 μM)
